Among the data in patent US20110071180A1, “SUB-TYPE SELECTIVE AMIDES OF DIAZABICYCLOALKANES” (Targacept, Inc., priority 2008, published 2011) are Ki and inhibition values, retold here.

One assay addresses T1, human α4β2 nAChR subtype (Homo sapiens, UniProt P17787+P43681).
T1 construct: expressed in transfected cells; host or cells: SH-EP1 clonal cells expressing human α4β2
The experiment in a line: Radioligand binding, [3H]nicotine, membranes from SH-EP1/human α4β2 clonal cells. Particulars: [3H]nicotine 5 nM, SH-EP1/human α4β2 cell membranes. How it is done: Preparation of membranes from SH-EP1/human α4β2 clonal cells: Cell pellets from 40 150 mm culture dishes were pooled, and homogenized by Polytron (Kinematica GmbH, Switzerland) in 20 milliliters of ice-cold preparative buffer. The homogenate was centrifuged at 48,000 g for 20 minutes at 4° C. The resulting pellet was re-suspended in 20 mL of ice-cold preparative buffer and stored at −20° C.
(§1) On the day of the assay, the frozen membranes were thawed and spun at 48,000×g for 20 min. The supernatant was decanted and discarded. The pellet was resuspended in Dulbecco's phosphate buffered saline (PBS, Life Technologies) pH 7.4 and homogenized with the Polytron for 6 seconds. Protein concentrations were determined using a Pierce BCA Protein Assay Kit, with bovine serum albumin as the standard (Pierce Chemical Company, Rockford, Ill.).
(§2) Membrane preparations (approximately 50 μg for human and 200-300 μg protein for rat α4β2) were incubated in PBS (50 μL and 100 μL respectively) in the presence of competitor compound (0.01 nM to 100 μM) and 5 nM [^3H]nicotine for 2-3 hours on ice. Incubation was terminated by rapid filtration on a multi-manifold tissue harvester (Brandel, Gaithersburg, Md.) using GF/B filters presoaked in 0.33% polyethyleneimine (w/v) to reduce non-specific binding. Tissue was rinsed 3 times in PBS, pH 7.4. Scintillation fluid was added to filters containing the washed tissue and allowed to equilibrate. Filters were then counted to determine radioactivity bound to the membranes by liquid scintillation counting (2200CA Tri-Carb LSC, Packard Instruments, 50% efficiency or Wallac Trilux 1450 MicroBeta, 40% efficiency, Perkin Elmer).
(§3) Data were expressed as disintegrations per minute (DPMs). Within each assay, each point had 2-3 replicates. The replicates for each point were averaged and plotted against the log of the drug concentration. IC50, which is the concentration of the compound that produces 50% inhibition of binding, was determined by least squares non-linear regression. Ki values were calculated using the Cheng-Prussof equation (1973): […]

A further assay has as its target T2, rat α4β2 nAChR subtype (Rattus norvegicus, UniProt P09483+P12390).
T2 construct: The cerebral cortex was removed and placed in 20 volumes (weight:volume) of ice-cold preparative buffer; from tissue; host or cells: rat cerebral cortex membranes (female Sprague-Dawley)
The experiment in a line: Radioligand binding, [3H]nicotine, rat cortex membranes. As to conditions: [3H]nicotine 5 nM. How it is done: Preparation of Membranes from Rat Cortex: Rats (Female, Sprague-Dawley), weighing 150-250 g, were maintained on a 12 h light/dark cycle and were allowed free access to water and food supplied by PMI Nutrition International, Inc. Animals were anesthetized with 70% CO2, and then decapitated. Brains were removed and placed on an ice-cold platform. The cerebral cortex was removed and placed in 20 volumes (weight:volume) of ice-cold preparative buffer (137 mM NaCl, 10.7 mM KCl, 5.8 mM KH2PO4, 8 mM Na2HPO4, 20 mM HEPES (free acid), 5 mM iodoacetamide, 1.6 mM EDTA, pH 7.4); PMSF, dissolved in methanol to a final concentration of 100 μM, was added and the suspension was homogenized by Polytron. The homogenate was centrifuged at 18,000×g for 20 min at 4° C. and the resulting pellet was re-suspended in 20 volumes of ice-cold water. After 60 min incubation on ice, a new pellet was collected by centrifugation at 18,000×g for 20 min at 4° C. The final pellet was re-suspended in 10 volumes of buffer and stored at −20° C.
as §1, §2, §3

In a further assay the target is T3, α7 nAChR subtype (Rattus norvegicus, UniProt Q05941).
T3 construct: The hippocampus was removed and placed in 10 volumes (weight:volume) of ice-cold preparative buffer; from tissue; host or cells: rat hippocampus membranes (female Sprague-Dawley)
The experiment in a line: Radioligand binding, [3H]MLA, rat hippocampus membranes. Particulars: for inhibition at 5 µM: read-out: α7 high through-put screening (HTS) result; for Ki: [3H]MLA 5 nM, rat hippocampus membranes, read-out: α7 Ki. How it is done: Rats (female, Sprague-Dawley), weighing 150-250 g, were maintained on a 12 h light/dark cycle and were allowed free access to water and food supplied by PMI Nutrition International, Inc. Animals were anesthetized with 70% CO2, then decapitated. Brains were removed and placed on an ice-cold platform. The hippocampus was removed and placed in 10 volumes (weight:volume) of ice-cold preparative buffer (137 mM NaCl, 10.7 mM KCl, 5.8 mM KH2PO4, 8 mM Na2HPO4, 20 mM HEPES (free acid), 5 mM iodoacetamide, 1.6 mM EDTA, pH 7.4); PMSF, dissolved in methanol to a final concentration of 100 μM, was added and the tissue suspension was homogenized by Polytron. The homogenate was centrifuged at 18,000×g for 20 min at 4° C. and the resulting pellet was re-suspended in 10 volumes of ice-cold water. After 60 min incubation on ice, a new pellet was collected by centrifugation at 18,000×g for 20 min at 4° C. The final pellet was re-suspended in 10 volumes of buffer and stored at −20° C. On the day of the assay, tissue was thawed, centrifuged at 18,000×g for 20 min, and then re-suspended in ice-cold PBS (Dulbecco's Phosphate Buffered Saline, 138 mM NaCl, 2.67 mM KCl, 1.47 mM KH2PO4, 8.1 mM Na2HPO4, 0.9 mM CaCl2, 0.5 mM MgCl2, Invitrogen/Gibco, pH 7.4) to a final concentration of approximately 2 mg protein/mL. Protein was determined by the method of Lowry et al., J. Biol. Chem. 193: 265 (1951), using bovine serum albumin as the standard.
The binding of [^3H]MLA was measured using a modification of the methods of Davies et al., Neuropharmacol. 38: 679 (1999). [^3H]MLA (Specific Activity=25-35 Ci/mmol) was obtained from Tocris. The binding of [^3H]MLA was determined using a 2 h incubation at 21° C. Incubations were conducted in 48-well micro-titre plates and contained about 200 μg of protein per well in a final incubation volume of 300 μL. The incubation buffer was PBS and the final concentration of [^3H]MLA was 5 nM. The binding reaction was terminated by filtration of the protein containing bound ligand onto glass fiber filters (GF/B, Brandel) using a Brandel Tissue Harvester at room temperature. Filters were soaked in de-ionized water containing 0.33% polyethyleneimine to reduce non-specific binding. Each filter was washed with PBS (3×1 mL) at room temperature. Non-specific binding was determined by inclusion of 50 μM non-radioactive MLA in selected wells.
The inhibition of [^3H]MLA binding by test compounds was determined by including seven different concentrations of the test compound in selected wells. Each concentration was replicated in triplicate. IC50 values were estimated as the concentration of compound that inhibited 50 percent of specific [^3H]MLA binding. Inhibition constants (Ki values), reported in nM, were calculated from the IC50 values using the method of Cheng et al., Biochem. Pharmacol. 22: 3099-3108 (1973).

Molecules are shown by their SMILES. Some results are limits rather than exact numbers.

T1 sequence (P43681 29-627 limits assumed): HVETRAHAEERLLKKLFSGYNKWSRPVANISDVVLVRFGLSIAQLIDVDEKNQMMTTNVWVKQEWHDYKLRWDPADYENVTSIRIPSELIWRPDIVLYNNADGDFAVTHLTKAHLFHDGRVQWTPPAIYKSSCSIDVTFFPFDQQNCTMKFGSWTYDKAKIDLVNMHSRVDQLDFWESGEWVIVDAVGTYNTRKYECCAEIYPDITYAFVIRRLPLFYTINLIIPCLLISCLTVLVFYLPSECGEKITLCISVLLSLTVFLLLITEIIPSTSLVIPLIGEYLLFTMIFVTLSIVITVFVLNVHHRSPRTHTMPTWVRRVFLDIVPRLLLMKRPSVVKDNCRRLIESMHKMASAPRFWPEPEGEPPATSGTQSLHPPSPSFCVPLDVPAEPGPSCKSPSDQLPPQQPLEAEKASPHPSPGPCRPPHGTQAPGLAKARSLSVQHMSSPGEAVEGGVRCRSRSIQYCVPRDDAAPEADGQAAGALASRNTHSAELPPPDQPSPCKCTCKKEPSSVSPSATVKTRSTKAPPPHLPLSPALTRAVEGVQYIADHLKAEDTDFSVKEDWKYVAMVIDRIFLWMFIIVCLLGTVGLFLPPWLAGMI
T1 sequence (P17787 26-502): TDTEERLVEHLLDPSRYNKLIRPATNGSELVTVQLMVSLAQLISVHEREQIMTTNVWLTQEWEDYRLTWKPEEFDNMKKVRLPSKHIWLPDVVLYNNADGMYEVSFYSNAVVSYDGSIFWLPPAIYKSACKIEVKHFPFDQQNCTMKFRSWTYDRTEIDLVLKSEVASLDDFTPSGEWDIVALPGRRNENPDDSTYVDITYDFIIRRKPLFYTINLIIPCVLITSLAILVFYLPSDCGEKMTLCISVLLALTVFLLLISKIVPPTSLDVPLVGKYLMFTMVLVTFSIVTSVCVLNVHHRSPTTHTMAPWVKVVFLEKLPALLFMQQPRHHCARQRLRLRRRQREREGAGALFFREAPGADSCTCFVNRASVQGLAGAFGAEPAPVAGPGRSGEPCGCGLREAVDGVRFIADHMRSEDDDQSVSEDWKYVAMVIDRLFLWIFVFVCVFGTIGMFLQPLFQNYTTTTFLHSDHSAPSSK
T2 sequence (P09483 31-630): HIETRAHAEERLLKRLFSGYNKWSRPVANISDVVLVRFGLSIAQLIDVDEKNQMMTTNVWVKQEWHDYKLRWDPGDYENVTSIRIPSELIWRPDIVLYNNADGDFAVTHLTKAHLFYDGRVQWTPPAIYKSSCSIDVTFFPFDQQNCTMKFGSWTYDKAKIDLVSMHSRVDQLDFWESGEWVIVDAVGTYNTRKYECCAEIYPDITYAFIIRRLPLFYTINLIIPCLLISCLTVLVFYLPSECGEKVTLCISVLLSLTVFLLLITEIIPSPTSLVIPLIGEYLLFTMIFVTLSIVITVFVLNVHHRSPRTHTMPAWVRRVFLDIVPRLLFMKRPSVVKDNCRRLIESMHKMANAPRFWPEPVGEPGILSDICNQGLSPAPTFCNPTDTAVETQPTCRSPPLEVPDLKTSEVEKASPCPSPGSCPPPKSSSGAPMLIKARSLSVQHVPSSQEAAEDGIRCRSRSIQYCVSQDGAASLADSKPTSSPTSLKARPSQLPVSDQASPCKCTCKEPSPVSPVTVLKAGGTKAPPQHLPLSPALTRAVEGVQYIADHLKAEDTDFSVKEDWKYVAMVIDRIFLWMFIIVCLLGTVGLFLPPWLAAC
T2 sequence (P12390 25-500): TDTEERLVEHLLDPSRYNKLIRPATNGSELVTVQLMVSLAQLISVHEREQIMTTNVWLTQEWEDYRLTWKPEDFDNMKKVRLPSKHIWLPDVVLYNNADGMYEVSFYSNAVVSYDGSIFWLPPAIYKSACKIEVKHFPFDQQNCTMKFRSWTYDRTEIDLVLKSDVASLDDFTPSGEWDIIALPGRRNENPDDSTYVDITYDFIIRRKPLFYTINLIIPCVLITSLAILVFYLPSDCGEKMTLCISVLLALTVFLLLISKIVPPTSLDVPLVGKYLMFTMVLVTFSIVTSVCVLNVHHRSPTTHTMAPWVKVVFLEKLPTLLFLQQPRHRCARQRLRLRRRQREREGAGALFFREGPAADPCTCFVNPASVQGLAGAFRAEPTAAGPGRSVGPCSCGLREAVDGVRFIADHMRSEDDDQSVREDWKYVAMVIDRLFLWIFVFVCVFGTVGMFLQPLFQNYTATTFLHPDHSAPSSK
T3 sequence (Q05941 23-502): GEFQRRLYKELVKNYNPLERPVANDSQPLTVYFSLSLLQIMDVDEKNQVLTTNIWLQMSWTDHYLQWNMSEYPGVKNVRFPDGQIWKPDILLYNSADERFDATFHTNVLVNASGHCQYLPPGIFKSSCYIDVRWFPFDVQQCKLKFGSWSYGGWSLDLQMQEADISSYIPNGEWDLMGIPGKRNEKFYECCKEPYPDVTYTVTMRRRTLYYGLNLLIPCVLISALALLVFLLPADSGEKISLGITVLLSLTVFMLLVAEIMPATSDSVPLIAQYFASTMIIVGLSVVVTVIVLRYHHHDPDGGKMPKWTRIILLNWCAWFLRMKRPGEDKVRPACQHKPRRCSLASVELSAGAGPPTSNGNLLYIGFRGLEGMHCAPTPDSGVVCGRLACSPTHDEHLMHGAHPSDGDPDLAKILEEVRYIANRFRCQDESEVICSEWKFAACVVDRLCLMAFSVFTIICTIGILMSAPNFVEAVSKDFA

`CC(=O)N1CC2CNCC2C1` (stereo not drawn) [Example 10-1]: the Ki (usually the equilibrium dissociation constant of an inhibitor or competing ligand from its target) on human α4β2 nAChR subtype is 38.5 nM; on rat α4β2 nAChR subtype, 20.5 nM. The inhibition at 5 µM at α7 nAChR subtype is less than 50%.

Turning to `O=C(C1CC1)N1CC2CNCC2C1` (stereo not drawn) [Example 10-2], the Ki was determined as 1.8 nM on human α4β2 nAChR subtype, 17.3 nM on rat α4β2 nAChR subtype and 919 nM at α7 nAChR subtype.

Consider `O=C(C1CCCC1)N1CC2CNCC2C1` (stereo not drawn) [Example 10-3], for which the Ki on human α4β2 nAChR subtype worked out at 29.6 nM; on rat α4β2 nAChR subtype it was 27.7 nM. The inhibition at 5 µM at α7 nAChR subtype is less than 50%.

As to `COCC(=O)N1CC2CNCC2C1` (stereo not drawn) [Example 10-4], the values for the Ki on human α4β2 nAChR subtype, on rat α4β2 nAChR subtype and on α7 nAChR subtype were 323 nM, 137 nM and 12400 nM, respectively.

Consider `C=CCC(=O)N1CC2CNCC2C1` (stereo not drawn) [Example 10-5], for which the Ki on human α4β2 nAChR subtype came out at 140 nM; on rat α4β2 nAChR subtype, 22.5 nM. The inhibition at 5 µM on α7 nAChR subtype was less than 50%.

Turning to `O=C(C1CC=CC1)N1CC2CNCC2C1` (stereo not drawn) [Example 10-7], the Ki at human α4β2 nAChR subtype stood at 72.2 nM; at rat α4β2 nAChR subtype, 28.4 nM. Further, the inhibition at 5 µM at α7 nAChR subtype is less than 50%.

Regarding `O=C(C1=CCCC1)N1CC2CNCC2C1` (stereo not drawn) [Example 10-8], the Ki on human α4β2 nAChR subtype was 296 nM; at rat α4β2 nAChR subtype it was 116 nM. At α7 nAChR subtype, the inhibition at 5 µM was less than 50%.

In the case of `O=C(C(F)F)N1CC2CNCC2C1` (stereo not drawn) [Example 10-9], the Ki on human α4β2 nAChR subtype turned out to be 31.7 nM; on rat α4β2 nAChR subtype it was 4.3 nM. On α7 nAChR subtype, the inhibition at 5 µM was less than 50%.

As for `CC(C)=CC(=O)N1CC2CNCC2C1` (stereo not drawn) [Example 10-10], the Ki at human α4β2 nAChR subtype was found to be 79.7 nM; on rat α4β2 nAChR subtype, 54.2 nM. The inhibition at 5 µM on α7 nAChR subtype is less than 50%.

As to `O=C(CF)N1CC2CNCC2C1` (stereo not drawn) [Example 10-11], the Ki is 45.1 nM at human α4β2 nAChR subtype and 62.2 nM on rat α4β2 nAChR subtype. For the same compound, the inhibition at 5 µM at α7 nAChR subtype is less than 50%.

With `NC(=O)CC(=O)N1CC2CNCC2C1` (stereo not drawn) [Example 10-12], the figures for the Ki at human α4β2 nAChR subtype and at rat α4β2 nAChR subtype were 746 nM and 1390 nM, respectively. On α7 nAChR subtype, the inhibition at 5 µM was less than 50%.

With `COCCC(=O)N1CC2CNCC2C1` (stereo not drawn) [Example 10-13], the Ki on human α4β2 nAChR subtype came to 220 nM; at rat α4β2 nAChR subtype, 305 nM. Besides, the inhibition at 5 µM at α7 nAChR subtype is less than 50%.

Turning to `CCC(=O)N1CC2CNCC2C1` (stereo not drawn) [Example 10-14], the Ki came to 8.5 nM on human α4β2 nAChR subtype and 16.9 nM on rat α4β2 nAChR subtype. Further, the inhibition at 5 µM on α7 nAChR subtype is less than 50%.

Turning to `CCCC(=O)N1CC2CNCC2C1` (stereo not drawn) [Example 10-15], the figures for the inhibition constant Ki at human α4β2 nAChR subtype and at rat α4β2 nAChR subtype were 48.8 nM and 112 nM, respectively. On α7 nAChR subtype, the inhibition at 5 µM is less than 50%.

Turning to `O=C(N1CC2CNCC2C1)C1(C(F)(F)F)CC1` (stereo not drawn) [Example 10-17], the Ki came to 303 nM on human α4β2 nAChR subtype and 419 nM at rat α4β2 nAChR subtype. In addition, on α7 nAChR subtype, the inhibition at 5 µM was less than 50%.

For the compound `O=C(C1CC1(F)F)N1CC2CNCC2C1` (stereo not drawn) [Example 10-18], the results for the Ki on human α4β2 nAChR subtype and on rat α4β2 nAChR subtype were 2.1 nM and 6.2 nM, respectively. Besides, the inhibition at 5 µM at α7 nAChR subtype is less than 50%.

Consider `CC1(C)CC1C(=O)N1CC2CNCC2C1` (stereo not drawn) [Example 10-19], for which the Ki at human α4β2 nAChR subtype was 16.9 nM; on rat α4β2 nAChR subtype it was 7.7 nM. For the same compound, the inhibition at 5 µM at α7 nAChR subtype was less than 50%.

In the case of `CC1(C(=O)N2CC3CNCC3C2)CC1` (stereo not drawn) [Example 10-20], the Ki stood at 53.9 nM at human α4β2 nAChR subtype and 136 nM at rat α4β2 nAChR subtype. Besides, the inhibition at 5 µM at α7 nAChR subtype is less than 50%.

For `CC1CC1C(=O)N1CC2CNCC2C1` (stereo not drawn) [Example 10-21], the Ki on human α4β2 nAChR subtype was 4.2 nM; on rat α4β2 nAChR subtype it was 4.1 nM. Moreover, on α7 nAChR subtype, the inhibition at 5 µM was less than 50%.

As for `O=C(N1CC2CNCC2C1)C1(O)CC1` (stereo not drawn) [Example 10-22], the Ki on human α4β2 nAChR subtype is 343 nM; on rat α4β2 nAChR subtype, 445 nM. The inhibition at 5 µM on α7 nAChR subtype was less than 50%.

For the compound `CC1(C)C(C(=O)N2CC3CNCC3C2)C1(C)C` (stereo not drawn) [Example 10-23], the Ki came out at 16.4 nM on human α4β2 nAChR subtype and 49.1 nM at rat α4β2 nAChR subtype. Also, the inhibition at 5 µM on α7 nAChR subtype is less than 50%.

As to `N#CC1(C(=O)N2CC3CNCC3C2)CC1` (stereo not drawn) [Example 10-24], the results for the Ki at human α4β2 nAChR subtype and at rat α4β2 nAChR subtype were 274 nM and 572 nM, respectively. Besides, the inhibition at 5 µM at α7 nAChR subtype is less than 50%.

As to `O=C(C1CCC1)N1CC2CNCC2C1` (stereo not drawn) [Example 10-25], the Ki at human α4β2 nAChR subtype was 5.8 nM; on rat α4β2 nAChR subtype, 12.5 nM. For the same compound, the inhibition at 5 µM at α7 nAChR subtype is less than 50%.
